Assay results: US10239856B2, “Synthesis of resorcylic acid lactones useful as therapeutic agents” (UNIVERSITY DE STRASBOURG, priority 2008, dated 2019)
Like-named read-outs stand apart in the source and are kept apart here.

Tests used:
[1] = target: HSP90α (Homo sapiens, UniProt P07900); test: Affinity to HSP90α; assay type: binding
[2] = test system: Her-2 (HSP90 client); test: Her-2 (HSP90 client) degradation (client depletion); assay type: cell-based
Experimental: A number of the compounds of the invention were tested for affinity to HSP90α (see Kim et al., J. Biomol. Screen., 2004, 9, 375), Her-2 (HSP90 client) degradation (see Xu et al., J. Biol. Chem., 2001, 276, 3702), and cytotoxicity against SKBr3 and HCC1954, two breast cancer cell lines which over express Her-2.

[3] = test system: SKBr3; test: Cytotoxicity against SKBr3 breast cancer cells; assay type: cell-based; conditions: Homo sapiens, SK-BR-3, first value of cell
Experimental: (§1) Compounds of the invention were assayed for cytotoxicity in HCC1954 and SK-BR-3 tumor cells.

[4] = test system: HCC1954; test: Cytotoxicity against HCC1954 breast cancer cells; assay type: cell-based; conditions: Homo sapiens, second value of cell
Experimental: as §1

[5] = read-out: Client Depletion; Her-2 degradation
[6] = Her-2 degradation; read-out: Client Depletion

Row | Compound | IC50 ([1]; HSP90 affinity) | IC50 [2, 5] | IC50 ([1]; read-out: HSP90 affinity) | IC50 [2, 6] | IC50 [3] | IC50 [4]
1 | COC(=O)CON=C1/C=C/CC/C=C/CCOC(=O)c2c(O)cc(O)cc2C1 [compound 385] | 373 nM | 8160 nM | – | – | – | –
2 | O=C1OCC/C=C/CCCCC(=NOCC(=O)N2CCCCC2)Cc2c(Cl)c(O)cc(O)c21 [compound 356] | – | – | 511 nM | 9480 nM | – | –
3 | O=C1OC/C=C/CCCCC(=NOCC(=O)N2CCCCC2)Cc2cc(O)cc(O)c21 [compound 353] | – | – | 3030 nM | > 10000 nM | – | –
4 | COC(=O)CON=C1/C=C/CC/C=C/CCOC(=O)c2c(O)cc(O)c(Cl)c2C1 [13l] | – | – | 190 nM | 6500 nM | > 10000 nM | > 10000 nM
5 | CCCC1C/C=C/C(C)C/C=C/C(=NOCC(=O)N2CCCCC2)Cc2c(Cl)c(O)cc(O)c2C(=O)O1 (centres unmarked) [compound 365] | 1750 nM | 8970 nM | – | – | – | –
6 | CC1/C=C/CCOC(=O)c2c(O)cc(O)c(Cl)c2CC(=NOCC(=O)N2CCCCC2)/C=C/C1 (centres unmarked) [compound 366] | 170 nM | 2040 nM | – | – | – | –
7 | O=C1OCC/C=C/CCCCC(=NOCC(=O)N2CCCCC2)Cc2c(Cl)c(O)cc(O)c21 [13g] | – | – | 81 nM | – | – | –
8 | CC1CCCCN1C(=O)CON=C1/C=C/CC/C=C/CCOC(=O)c2c(O)cc(O)cc2C1 (centres unmarked) [compound 372] | 886 nM | 3070 nM | – | – | – | –
9 | CC1/C=C/COC(=O)c2c(O)cc(O)c(Cl)c2CC(=NOCC(=O)N2CCCCC2)/C=C/C1 (centres unmarked) [compound 368] | – | – | 599 nM | > 10000 nM | – | –
10 | O=C1OCC/C=C/CC/C=C/C(=NOCC(=O)N2CC=CC2)Cc2cc(O)cc(O)c21 [compound 386] | 128 nM | 669 nM | – | – | – | –
11 | O=C1OCC/C=C/CC/C=C/C(=NOCC(=O)N2CC=CCC2)Cc2cc(O)cc(O)c21 [compound 382] | 22 nM | 122 nM | – | – | – | –
12 | CC1/C=C/CCCOC(=O)c2c(O)cc(O)c(Cl)c2CC(=NOCC(=O)N2CCCCC2)/C=C/C1 (centres unmarked) [compound 367] | 1720 nM | > 10000 nM | – | – | – | –
13 | CCCC1C/C=C/CC/C=C/C(=NOCC(=O)N2CCCCC2)Cc2cc(O)cc(O)c2C(=O)O1 (centres unmarked) [compound 358] | 587 nM | > 10000 nM | – | – | – | –
14 | O=C1OCC/C=C/CC/C=C/C(=NOCC(=O)N(Cc2ccccc2)Cc2ccccc2)Cc2cc(O)cc(O)c21 [compound 381] | 2990 nM | > 10000 nM | – | – | – | –
15 | CC1CN(C(=O)CON=C2/C=C/CC/C=C/CCOC(=O)c3c(O)cc(O)cc3C2)CC(C)O1 (centres unmarked) [compound 391] | 337 nM | 2830 nM | – | – | – | –
16 | O=C1OCC/C=C/CC/C=C/C(=NOCC(=O)N2CCOCC2)Cc2cc(O)cc(O)c21 [compound 380] | 124 nM | 588 nM | – | – | – | –
17 | CCCC1C/C=C/CC/C(C)=C/C(=NOCC(=O)N(CC)CC)Cc2cc(O)cc(O)c2C(=O)O1 (centres unmarked) [compound 362] | 4660 nM | > 10000 nM | – | – | – | –
18 | O=C(CON=C1/C=C/CC/C=C/CCOC(=O)c2c(O)cc(O)cc2C1)NC1CCCCC1 [compound 383] | 116 nM | 708 nM | – | – | – | –
19 | CC1CCN(C(=O)CON=C2/C=C/CC/C=C/CCOC(=O)c3c(O)cc(O)cc3C2)CC1 [compound 375] | 70 nM | 201 nM | – | – | – | –
20 | CC1/C=C/CCOC(=O)c2c(O)cc(O)cc2CC(=NOCC(=O)N2CCCCC2)/C=C/C1 (centres unmarked) [compound 370] | 38 nM | 97 nM | – | – | – | –
21 | O=C1OCC/C=C/CC/C=C/C(=NOCC(=O)N2CCC(c3ccccc3)CC2)Cc2cc(O)cc(O)c21 [compound 376] | 2240 nM | > 10000 nM | – | – | – | –
22 | C[C@@H]1C/C=C/[C@@H](O)C/C=C/C(=N/OCC(=O)N2CCCCC2)Cc2cc(O)cc(O)c2C(=O)O1 [compound 457] | 12 nM | – | – | – | – | –
23 | CCCC1C/C=C/CC/C=C/C(=NOCC(=O)N2CCCCC2)Cc2c(Cl)c(O)cc(O)c2C(=O)O1 (centres unmarked) [compound 394] | 96 nM | 1580 nM | – | – | – | –
24 | COC1CC/C=C/CCOC(=O)c2c(O)cc(O)c(Cl)c2C/C(=N\OCC(=O)N2CCCCC2)C1 (centres unmarked) [13f] | – | – | 68 nM | 2400 nM | 1300 nM | 2800 nM
25 | C=CCC/C=C/C(Cc1c(Cl)c(O)cc(O)c1C(=O)OCCC=C)=NOCC(=O)N1CCCCC1 [13m] | – | – | > 10000 nM | > 10000 nM | > 10000 nM | > 10000 nM
26 | CCCC1C/C=C/CC/C(C)=C/C(=NOCC(=O)N2CCCCC2)Cc2cc(O)cc(O)c2C(=O)O1 (centres unmarked) [compound 350] | 196 nM | 805 nM | – | – | – | –
27 | O=C1OCC/C=C/CC/C=C/C(=NOCC(=O)N2CCC(Cc3ccccc3)CC2)Cc2cc(O)cc(O)c21 [compound 377] | 5760 nM | > 10000 nM | – | – | – | –
28 | CC(C)(C)OC(=O)N1CCN(C(=O)CON=C2/C=C/CC/C=C/CCOC(=O)c3c(O)cc(O)cc3C2)CC1 [compound 392] | – | – | 327 nM | 2870 nM | – | –
29 | CCCC1C/C=C/CCCCC(=NOCC(=O)N2CCCCC2)Cc2cc(O)cc(O)c2C(=O)O1 (centres unmarked) [compound 359] | 1940 nM | > 8800 nM | – | – | – | –
